Measured values as given in patent US9321722B2, “Bis-indolic derivatives, their uses in particular as antibacterials” (UNIVERSITE JOSEPH FOURIER, priority 2011, dated 2016).
In brackets after ≈: the same amount, converted by molar mass. Read-outs that look alike come from different tables or passages of the source.

What was measured:
[1] = test system: Bacillus subtilis CIP 5262; assay: MIC microdilution (Table I-1); format: cell-based
Description: (§1) The microdilution method recommended by the Clinical and Laboratory Standard Institute [M07-A8, Vol. 29, N^o 2] was used. The activity of indolic compounds was tested against 29 bacterial strains belonging to 17 different species and 12 different genera (Staphylococcus, Streptococcus, Enterococcus, Listeria, Bacillus, Haemophilus, Escherichia, Klebsiella, Enterobacter, Serratia, Pseudomonas, and Acinetobacter). Bacterial inocula were prepared in Mueller Hinton broth (MH2, bioMerieux, Marcy L'Etoile, France), supplemented with 10% sheep blood for fastidious species (i.e., Streptococcus pneumoniae and Haemophilus influenzae). They were dispensed in 96 well microtiter plates (5×10^5 CFU/ml of final inoculum). Indolic compounds were added to the wells as to obtain two-fold serial concentrations (0.50-128 mg/L of final concentrations). Plates were incubated at 37° C. in ambient air, or at 37° C. in 5% CO2 enriched atmosphere for fastidious species. […] Drug-free cultures served as growth controls. Cultures receiving gentamicin, ciprofloxacin or cefotaxime served as positive controls.

E. faecium CIP 54.32 = assay: MIC microdilution (Table I-1); format: cell-based
Description: as §1

[2] = test system: Listeria innocua CIP 80.11; assay: MIC microdilution (Table I-1); format: cell-based
Description: as §1

S. pneumoniae ATCC 49619 = assay: MIC microdilution (Table I-1); format: cell-based; conditions: Streptococcus pneumoniae, ATCC49619, read after 18 hours
Description: as §1

[3] = test system: Serratia marcescens CIP 103551; assay: MIC microdilution (Table I-1); format: cell-based; conditions: CIP103551, read after 18 hours
Description: as §1

S. aureus ATCC 25923 = assay: MIC microdilution (Table I-1); format: cell-based; conditions: Staphylococcus aureus, ATCC25923, read after 18 hours
Description: as §1

[4] = test system: S. agalactiae (group B) ATCC 12400; assay: MIC microdilution (Table I-1); format: cell-based
Description: as §1

[5] = test system: Acinetobacter baumanii ATCC 19606; assay: MIC microdilution (Table I-1); format: cell-based; conditions: Acinetobacter baumannii, ATCC19606, read after 18 hours
Description: as §1

[6] = test system: Pseudomonas aeruginosa CIP 5933; assay: MIC microdilution (Table I-1); format: cell-based; conditions: CIP5933, read after 18 hours
Description: as §1

[7] = test system: S. pyogenes (group A) CIP 104226; assay: MIC microdilution (Table I-1); format: cell-based
Description: as §1

S. mitis CIP 103335 = assay: MIC microdilution (Table I-1); format: cell-based
Description: as §1

[8] = test system: Enterobacter cloacae ATCC 13047; assay: MIC microdilution (Table I-1); format: cell-based; conditions: ATCC13047, read after 18 hours
Description: as §1

E. faecalis ATCC 29212 = assay: MIC microdilution (Table I-1); format: cell-based
Description: as §1

[9] = test system: Klebsiella pneumoniae ATCC 35657; assay: MIC microdilution (Table I-1); format: cell-based
Description: as §1

[10] = test system: Escherichia coli ATCC 25922; assay: MIC microdilution (Table I-1); format: cell-based; conditions: ATCC25922, read after 18 hours
Description: as §1

[11] = test system: Haemophilus influenzae ATCC 49766; assay: MIC microdilution (Table I-1); format: cell-based; conditions: ATCC49766; Haemophilus influenzae ATCC 49766; read after 18 hours; read-out: MIC
Description: as §1

S. aureus ATCC 29213 = assay: MIC microdilution (Table I-1); format: cell-based, Staphylococcus aureus
Description: as §1

S. aureus CIP 103428 = assay: MIC microdilution (Table I-1); format: cell-based, Staphylococcus aureus
Description: as §1

S. aureus ATCC 6538 = assay: MIC microdilution (Table I-1); format: cell-based, Staphylococcus aureus
Description: as §1

S. aureus ATCC 9144 = assay: MIC microdilution (Table I-1); format: cell-based, Staphylococcus aureus
Description: as §1

[12] = test system: S. aureus ATCC 106414 (VISA); assay: MIC microdilution (Table I-1); format: cell-based, Staphylococcus aureus; conditions: read after 18 hours
Description: as §1

S. aureus SA-1199B = assay: MIC microdilution (Table I-1); format: cell-based, Staphylococcus aureus
Description: as §1

[13] = test system: S. aureus ATCC 33592 (MRSA); assay: MIC microdilution (Table I-1); format: cell-based, Staphylococcus aureus; conditions: read after 18 hours
Description: as §1

S. aureus CIP 65.6 = assay: MIC microdilution (Table I-1); format: cell-based, Staphylococcus aureus
Description: as §1

[14] = test system: S. aureus CIP 65.25 (MRSA); assay: MIC microdilution (Table I-1); format: cell-based, Staphylococcus aureus; conditions: read after 18 hours
Description: as §1

S. pneumoniae ATCC 6303 = assay: MIC microdilution (Table I-1); format: cell-based, Streptococcus pneumoniae
Description: as §1

[15] = test system: S. epidermidis ATCC 12228; assay: MIC microdilution (Table I-1); format: cell-based, Staphylococcus epidermidis
Description: as §1

[16] = test system: S. epidermidis CIP 103627; assay: MIC microdilution (Table I-1); format: cell-based, Staphylococcus epidermidis
Description: as §1

S. epidermidis CIP 81.55 = assay: MIC microdilution (Table I-1); format: cell-based, Staphylococcus epidermidis
Description: as §1

[17] = test system: MRC5 (human lung fibroblast); assay: In vitro cytotoxicity; format: cell-based
Description: (§2) In vitro cytotoxicity was assayed on three cell lines—KB (human mouth carcinoma), MCR5 (human lung fibroblast) and HCT116 (human colon tumor). Results are presented in table III as % of cellular growth inhibition in presence of 10^−5 M and 10^−6 M of the tested bis-indolic derivatives.

[18] = test system: KB (human mouth carcinoma); assay: In vitro cytotoxicity; format: cell-based; conditions: KB
Description: as §2

[19] = test system: HCT116 (human colon tumor); assay: In vitro cytotoxicity; format: cell-based
Description: as §2

[20] = test system: 29 bacterial strains belonging to 17 different species; assay: Intrinsic antibacterial activity, MIC on the bacterial panel; format: cell-based; conditions: result in words
Description: as §1

[21] = Staphylococcus aureus, read-out: MIC

In the case of `CC(C)(C)OC(=O)NCC(NC(=O)C(=O)c1c[nH]c2cc(Br)ccc12)c1c[nH]c2ccccc12` (stereo not drawn) [Compound 3, tert-Butyl(2-(2-(6-bromo-1H-indol-3-yl)-2-oxoacetamido)-2-(1H-indol-3-yl)ethyl) carbamate], the MIC ([1]; CIP5262, read after 18 hours, read-out: MIC) is reported as 128 µg/mL (≈ 244 µM), the MIC (E. faecium CIP 54.32; Enterococcus faecium, CIP54, read after 18 hours, read-out: MIC) is reported as 32 µg/mL (≈ 60.9 µM) and the MIC ([2]; CIP80, read after 18 hours, read-out: MIC) is reported as > 128 µg/mL. The MIC (S. pneumoniae ATCC 49619) was > 128 µg/mL, the MIC [3] was > 128 µg/mL and the MIC (S. aureus ATCC 25923) was 4 µg/mL (≈ 7.61 µM). The MIC ([4]; Streptococcus agalactiae, ATCC12400, read after 18 hours, read-out: MIC) was 64 µg/mL (≈ 122 µM), the MIC [5] was > 128 µg/mL and the MIC [6] was > 128 µg/mL. The MIC ([7]; Streptococcus pyogenes, CIP104226, read after 18 hours, read-out: MIC) was 128 µg/mL (≈ 244 µM), the MIC (S. mitis CIP 103335; Streptococcus mitis, CIP103335, read after 18 hours, read-out: MIC) was > 128 µg/mL and the MIC [8] was > 128 µg/mL. For the same compound, the MIC (E. faecalis ATCC 29212; Enterococcus faecalis, ATCC29212, read after 18 hours, read-out: MIC) was > 128 µg/mL, the MIC ([9]; ATCC35657, read after 18 hours, read-out: MIC) was > 128 µg/mL and the MIC [10] was > 128 µg/mL. For the same compound, the MIC [11] was 32 µg/mL (≈ 60.9 µM), the MIC (S. aureus ATCC 29213; Staphylococcus aureus, ATCC29213, read after 18 hours, read-out: MIC) was 2 µg/mL (≈ 3.81 µM) and the MIC (S. aureus CIP 103428; Staphylococcus aureus, CIP103428, read after 18 hours, read-out: MIC) was 4 µg/mL (≈ 7.61 µM). For the same compound, the MIC (S. aureus ATCC 6538; Staphylococcus aureus, ATCC6538, read after 18 hours, read-out: MIC) was 4 µg/mL (≈ 7.61 µM), the MIC (S. aureus ATCC 9144; Staphylococcus aureus, ATCC9144, read after 18 hours, read-out: MIC) was 4 µg/mL (≈ 7.61 µM) and the MIC [12, 21] was 4 µg/mL (≈ 7.61 µM). For the same compound, the MIC (S. aureus SA-1199B; Staphylococcus aureus, SA1199B, 18 h) was 4 µg/mL (≈ 7.61 µM), the MIC [13, 21] was 4 µg/mL (≈ 7.61 µM) and the MIC (S. aureus CIP 65.6; Staphylococcus aureus, CIP65, read after 18 hours, read-out: MIC) was 4 µg/mL (≈ 7.61 µM). For the same compound, the MIC [14, 21] was 4 µg/mL (≈ 7.61 µM), the MIC (S. pneumoniae ATCC 6303; Streptococcus pneumoniae, ATCC6303, read after 18 hours, read-out: MIC) was 64 µg/mL (≈ 122 µM) and the MIC ([15]; Staphylococcus epidermidis, ATCC12228, read after 18 hours, read-out: MIC) was 4 µg/mL (≈ 7.61 µM). The MIC ([16]; Staphylococcus epidermidis, CIP103627, read after 18 hours, read-out: MIC) was > 16 µg/mL, the MIC (S. epidermidis CIP 81.55; Staphylococcus epidermidis, CIP81, read after 18 hours, read-out: MIC) was 8 µg/mL (≈ 15.2 µM) and the inhibition at 10 µM ([17]; MRC5, 10^−5 M, read-out: % of cellular growth inhibition) was 98 ± 1%. The inhibition at 1 µM ([17]; MRC5, 10^−6 M, read-out: % of cellular growth inhibition (converted)) was 0%, the inhibition at 10 µM ([18]; 10^−5 M, read-out: % of cellular growth inhibition) was 100 ± 1% and the inhibition at 1 µM ([18]; 10^−6 M, read-out: % of cellular growth inhibition (converted)) was 4%. It also gave an inhibition at 10 µM ([19]; HCT-116, HCT116, 10^−5 M, read-out: % of cellular growth inhibition) of 97 ± 1% and an inhibition at 1 µM ([19]; HCT-116, HCT116, 10^−6 M, read-out: % of cellular growth inhibition (converted)) of 0%.

For “tert-Butyl(2-(4-bromo)benzamido-2-(5-bromo-1H-indol-3-yl)ethyl)carbamate [Compound 12a]”, the MIC ([1]; read after 18 hours) was >128 µg/mL, the MIC (E. faecium CIP 54.32; read after 18 hours) was >128 µg/mL and the MIC ([2]; read after 18 hours) was >128 µg/mL. For the same compound, the MIC ([4]; read after 18 hours) was 64 µg/mL, the MIC ([7]; read after 18 hours) was >128 µg/mL and the MIC (S. mitis CIP 103335; read after 18 hours) was >128 µg/mL. For the same compound, the MIC (E. faecalis ATCC 29212; read after 18 hours) was >128 µg/mL, the MIC ([9]; read after 18 hours) was 64 µg/mL and the MIC (S. aureus ATCC 29213; read after 18 hours) was >32 µg/mL. The MIC (S. aureus CIP 103428; read after 18 hours) was >32 µg/mL, the MIC (S. aureus ATCC 6538; read after 18 hours) was >32 µg/mL and the MIC (S. aureus ATCC 9144; read after 18 hours) was >32 µg/mL. For the same compound, the MIC [12] was >32 µg/mL, the MIC (S. aureus SA-1199B; S. aureus SA-1199B, read after 18 hours) was >32 µg/mL and the MIC [13] was >32 µg/mL. For the same compound, the MIC (S. aureus CIP 65.6; read after 18 hours) was >32 µg/mL, the MIC [14] was >32 µg/mL and the MIC (S. pneumoniae ATCC 6303; read after 18 hours) was 128 µg/mL. For the same compound, the MIC ([15]; read after 18 hours) was >32 µg/mL, the MIC ([16]; read after 18 hours) was >32 µg/mL and the MIC (S. epidermidis CIP 81.55; read after 18 hours) was >32 µg/mL. For the same compound, the intrinsic antibacterial activity [20] was “lack of intrinsic antibacterial activity”.
